Results: patent publication US20030194434A1, “Bubbling tablet, bubbling bath additive tablet, bubbling washing detergent tablet, bubbling tablet for oral administration, and process for producing these” (priority 2000, published 2003)

Assay: Kinetic viscosity of saccharide solution, Ubbelohde viscosimeter, Japanese Pharmacopoeia 13th edition
Format: physicochemical
Conditions: 0.5 g of component dissolved in 50 ml of water (25° C.)
Protocol: The value shown after each component in parenthesis is the kinetic viscosity of the solution in which 0.5 g of each component is dissolved in 50 ml of water (25° C.).

| SMILES | kinetic viscosity |
| --- | --- |
| OC[C@@H](O)[C@@H](O[C@H]1O[C@H](CO)[C@@H](O)[C@H](O)[C@H]1O)[C@H](O)[C@@H](O)CO [maltitol] | 0.904 cSt |
| OC[C@@H](O)[C@@H](O)[C@H](O)[C@H](O)CO [mannitol] | 0.896 cSt |
| OC[C@@H](O)[C@@H](O)[C@H](O)[C@@H](O)CO [sorbitol] | 0.897 cSt |
| OC[C@H]1O[C@@](CO)(O[C@H]2O[C@H](CO)[C@@H](O)[C@H](O)[C@H]2O)[C@@H](O)[C@@H]1O [sucrose] | 0.912 cSt |
| OC[C@H]1O[C@H](O[C@H]2O[C@H](CO)[C@@H](O)[C@H](O)[C@H]2O)[C@H](O)[C@@H](O)[C@@H]1O [trehalose] | 0.891 cSt |
| OC[C@@H](O)[C@H](O)[C@@H](O)CO [xylitol] | 0.904 cSt |
